This passage reports IC50 cell viability results from the supplement of paper PMC12137928.

This assay concerns HCT116. The following applies: 72 h. The procedure, abridged: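 Each well of the 1536-well plates received 250 HCT116 cells, which attached over 5 h. Luminescence was measured with CellTiter-Glo, scaled with vehicle as 0% and positive control as -100%, and pattern-corrected. A four-parameter Hill fit yielded IC50 and maximal efficacy.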

Structures are written as SMILES. Counter-ions that a name gives are not always drawn.

In the case of `CC(C)(C)CC(C)(C)c1cc(Cc2cc(C(C)(C)CC(C)(C)C)cc(-n3nc4ccccc4n3)c2O)c(O)c(-n2nc3ccccc3n2)c1`, the IC50 cell viability reads like this: (ICRF193 0 nM) more than 45.8 µM; (ICRF193 200 nM) more than 45.8 µM.

`CCOc1cc([C@@H](CS(C)(=O)=O)N2C(=O)c3cccc(NC(C)=O)c3C2=O)ccc1OC`: the IC50 cell viability reads like this: (ICRF193 0 nM) more than 45.8 µM; (ICRF193 200 nM) more than 45.8 µM.

Take `CCOc1ccc(Cc2cc([C@]34OC[C@](CO)(O3)[C@@H](O)[C@H](O)[C@H]4O)ccc2Cl)cc1`: the IC50 cell viability is, setting by setting: (ICRF193 0 nM) more than 45.8 µM; (ICRF193 200 nM) more than 45.8 µM.

For the compound `CNC(C)C(O)c1ccc(O)cc1` (stereo unspecified), the IC50 cell viability reads like this: (ICRF193 0 nM) more than 45.8 µM; (ICRF193 200 nM) more than 45.8 µM.

For the compound `CSCCNc1nc(SCCC(F)(F)F)nc2c1ncn2[C@@H]1O[C@H](COP(=O)(O)OP(=O)(O)C(Cl)(Cl)P(=O)(O)O)[C@@H](O)[C@H]1O`, the IC50 cell viability by setting is: (ICRF193 0 nM) more than 45.8 µM; (ICRF193 200 nM) more than 45.8 µM.

`C[C@H]1C[C@@H]2[C@H]([C@@H](O)C[C@@]3(C)[C@H]2CC[C@]3(O)C(=O)COC(=O)CCC(=O)O)[C@@]2(C)C=CC(=O)C=C12`: the IC50 cell viability by setting is: (ICRF193 0 nM) more than 45.8 µM; (ICRF193 200 nM) more than 45.8 µM.

`Cl/C=C\C[N+]12CN3CN(CN(C3)C1)C2`: the IC50 cell viability reads like this: (ICRF193 0 nM) more than 45.8 µM; (ICRF193 200 nM) more than 45.8 µM.

Regarding `OC[C@H]1O[C@@H](c2ccc(Cl)c(Cc3ccc(O[C@H]4CCOC4)cc3)c2)[C@H](O)[C@@H](O)[C@@H]1O`, the IC50 cell viability runs as follows: (ICRF193 0 nM) more than 45.8 µM; (ICRF193 200 nM) more than 45.8 µM.

On to `OCc1cc([C@@H](O)CNCCCCCCOCCOCc2c(Cl)cccc2Cl)ccc1O`, for which the IC50 cell viability was more than 45.8 µM (ICRF193 0 nM) and more than 45.8 µM (ICRF193 200 nM).

For the compound `CC#CCC(C)[C@H](O)/C=C/[C@@H]1[C@H]2c3cccc(CCCC(=O)O)c3O[C@H]2C[C@H]1O` (mixture of isomers) [Beraprost sodium], the IC50 cell viability was more than 45.8 µM (ICRF193 0 nM) and more than 45.8 µM (ICRF193 200 nM).

Consider `OC[C@H]1O[C@@H](O[C@@H]2[C@@H](CO)OC(O)(CO)[C@H]2O)[C@H](O)[C@@H](O)[C@H]1O` (mixture of isomers) [Lactulose], for which the IC50 cell viability (ICRF193 0 nM) is more than 45.8 µM and the IC50 cell viability (ICRF193 200 nM) is more than 45.8 µM.

Turning to `CCCCC(C)(O)C/C=C/[C@H]1[C@H](O)CC(=O)[C@@H]1CCCCCCC(=O)OC` (mixture of isomers) [Misoprostol], the IC50 cell viability is more than 45.8 µM (ICRF193 0 nM) and more than 45.8 µM (ICRF193 200 nM).

In the case of `CCCCCCCCCCCCCC(=O)OCC(COP(=O)([O-])OCC[N+](C)(C)C)OC(=O)CCCCCCCCCCCCC` (racemic) [1,2-Ditetradecanoyl-rac-glycerol-3-phosphocholine], the IC50 cell viability runs as follows: (ICRF193 0 nM) more than 45.8 µM; (ICRF193 200 nM) more than 45.8 µM.

As for `CCCCCCCCCCCCCCCCCC(=O)OCC(O)CO` (racemic) [1-Stearoyl-rac-glycerol], the IC50 cell viability was more than 45.8 µM (ICRF193 0 nM) and more than 45.8 µM (ICRF193 200 nM).

`C[N+](C)(C)CC(O)CC(=O)[O-]` (racemic) [DL-Carnitine HCl]: the IC50 cell viability by setting is: (ICRF193 0 nM) more than 45.8 µM; (ICRF193 200 nM) more than 45.8 µM.

In the case of `NC(CS)C(=O)O` (racemic) [DL-Cysteine], the IC50 cell viability was more than 45.8 µM (ICRF193 0 nM) and more than 45.8 µM (ICRF193 200 nM).

With `CC[C@H](C)[C@H](N)C(=O)O` (racemic) [DL-Isoleucine], the IC50 cell viability by setting is: (ICRF193 0 nM) more than 45.8 µM; (ICRF193 200 nM) more than 45.8 µM.

On to `Cc1c(C)c2c(c(C)c1OC(=O)c1cccnc1)CC[C@@](C)(CCC[C@H](C)CCC[C@H](C)CCCC(C)C)O2` (racemic) [DL-alpha Tocopheryl nicotinate], for which the IC50 cell viability by setting is: (ICRF193 0 nM) more than 45.8 µM; (ICRF193 200 nM) more than 45.8 µM.

Regarding `CC(=O)Oc1c(C)c(C)c2c(c1C)CCC(C)(CCCC(C)CCCC(C)CCCC(C)C)O2` (racemic) [dl-alpha-Tocopheryl acetate], the IC50 cell viability was more than 45.8 µM (ICRF193 0 nM) and more than 45.8 µM (ICRF193 200 nM).

Take `C=C(C)CNc1ccc(C(C)C(=O)O)cc1` (racemic) [rac Alminoprofen]: the IC50 cell viability runs as follows: (ICRF193 0 nM) more than 45.8 µM; (ICRF193 200 nM) more than 45.8 µM.

In the case of `C[N+]1([O-])[C@@H]2CC(OC(=O)[C@H](CO)c3ccccc3)C[C@H]1[C@@H]1O[C@@H]12` (single isomer, unassigned; (-)) [(-)-Scopolamine N-oxide], the IC50 cell viability (ICRF193 0 nM) was more than 45.8 µM and the IC50 cell viability (ICRF193 200 nM) was more than 45.8 µM.

On to `CC(C1=C(CCN(C)C)Cc2ccccc21)c1ccccn1` (stereo in doubt) [(S)-(+)-Dimethindene maleate], for which the IC50 cell viability is, setting by setting: (ICRF193 0 nM) more than 45.8 µM; (ICRF193 200 nM) more than 45.8 µM.

On to `CC(=C(CCO)SSCC1CCCO1)N(C=O)Cc1cnc(C)nc1N` (stereo in doubt) [Fursultiamine Hydrochloride], for which the IC50 cell viability (ICRF193 0 nM) was more than 45.8 µM and the IC50 cell viability (ICRF193 200 nM) was more than 45.8 µM.

Turning to `Cc1nnc(C(C)C)n1C1C[C@H]2CC[C@@H](C1)N2CC[C@H](NC(=O)C1CCC(F)(F)CC1)c1ccccc1` (stereo in doubt) [Maraviroc], the IC50 cell viability runs as follows: (ICRF193 0 nM) more than 45.8 µM; (ICRF193 200 nM) more than 45.8 µM.

As for `CC(C)(O)C(Cl)(Cl)Cl` [1,1,1-Trichloro-2-methyl-2-propanol], the IC50 cell viability by setting is: (ICRF193 0 nM) more than 45.8 µM; (ICRF193 200 nM) more than 45.8 µM.

Compound `O=Cc1ccccc1C=O` [1,2-Benzenedicarboxaldehyde] came in with an IC50 cell viability (ICRF193 0 nM) of more than 45.8 µM and an IC50 cell viability (ICRF193 200 nM) of more than 45.8 µM.

Consider `Oc1cc(O)cc(O)c1` [1,3,5-Trihydroxybenzene dihydrate], for which the IC50 cell viability by setting is: (ICRF193 0 nM) more than 45.8 µM; (ICRF193 200 nM) more than 45.8 µM.

Turning to `COc1cc(OC)cc(OC)c1` [1,3,5-Trimethoxybenzene], the IC50 cell viability by setting is: (ICRF193 0 nM) more than 45.8 µM; (ICRF193 200 nM) more than 45.8 µM.

For the compound `O=C(O)c1ccc(OCCCOc2ccc(C(=O)O)cc2)cc1` [1,3-Bis(4-carboxyphenoxy)propane], the IC50 cell viability is more than 45.8 µM (ICRF193 0 nM) and more than 45.8 µM (ICRF193 200 nM).

On to `NC(=Nc1ccccc1)Nc1ccccc1` [1,3-Diphenylguanidine], for which the IC50 cell viability is, setting by setting: (ICRF193 0 nM) more than 45.8 µM; (ICRF193 200 nM) more than 45.8 µM.

As to `O=S(=O)(O)CCCS(=O)(=O)O` [1,3-Propanedisulfonic acid disodium salt], the IC50 cell viability runs as follows: (ICRF193 0 nM) more than 45.8 µM; (ICRF193 200 nM) more than 45.8 µM.

In the case of `CC12CCC(CC1)C(C)(C)O2` [1,8-Cineol], the IC50 cell viability was more than 45.8 µM (ICRF193 0 nM) and more than 45.8 µM (ICRF193 200 nM).

Take `FC(F)(F)C(F)(F)C(F)(F)C(F)(F)C(F)(F)C(F)(F)C(F)(F)C(F)(F)Br` [1-Bromoheptadecafluorooctane]: the IC50 cell viability reads like this: (ICRF193 0 nM) more than 45.8 µM; (ICRF193 200 nM) more than 45.8 µM.

In the case of `CCN1CCCC1=O` [1-Ethyl-2-pyrrolidinone], the IC50 cell viability (ICRF193 0 nM) was more than 45.8 µM and the IC50 cell viability (ICRF193 200 nM) is more than 45.8 µM.

Regarding `CCCCCCCCCCCCCCCCO` [1-Hexadecanol], the IC50 cell viability (ICRF193 0 nM) was more than 45.8 µM and the IC50 cell viability (ICRF193 200 nM) is more than 45.8 µM.

Take `O=C(O)Cc1cccc2ccccc12` [1-Naphthaleneacetic acid]: the IC50 cell viability (ICRF193 0 nM) was more than 45.8 µM and the IC50 cell viability (ICRF193 200 nM) was more than 45.8 µM.

For `CCCCCCCCCCCCCCCCCCCCCCCCCCCCO` [1-Octacosanol], the IC50 cell viability runs as follows: (ICRF193 0 nM) more than 45.8 µM; (ICRF193 200 nM) more than 45.8 µM.

In the case of `CCCCCCCCCCCCCCCCCCO` [1-Octadecanol], the IC50 cell viability reads like this: (ICRF193 0 nM) more than 45.8 µM; (ICRF193 200 nM) more than 45.8 µM.
